Assay results published in patent US20250025480A1, “METHODS AND PHARMACEUTICAL COMPOSITIONS FOR THE TREATMENT OF CHOROIDAL NEOVASCULARISATION” (INSERM (INSTITUT NATIONAL DE LA SANTE ET DE LA RECHERCHE …, priority 2015, published 2025).

Experiments:
Format in all cases: in vivo
[1] = system: macrophage/microglial recruitment; assay: IBA1 immunofluorescence count of activated macrophage/microglial cells in laser burns on RPE-choroid flatmounts; settings: rat, day 3 after laser, subcutaneous spironolactone; P<0.05
Method: (§1) After anesthesia and dilation of the pupils, coverslips were positioned on the cornea as a contact glass. For rats, six to eight burns were performed 2 to 3-disk diameters away from the papillae with an Argon laser (532 nm) mounted on a slit lamp (170 mW, 0.1 second and 50 μm). For mice, four laser burns were induced at the 3, 6, 9 and 12 o'clock positions around the optic disc (250 mW, 0.05 second and 50 μm). The presence of a bubble witnessed the rupture of Bruch's membrane and confirmed the success of the laser impact.
Treatments were introduced only in rat model of CNV. After laser photocoagulation, rats were divided into 6 groups: 1) non-treated; 2) daily subcutaneous injection of spironolactone diluted in oliver oil and DMSO (25 mg/kg/day) until sacrifice; 3) daily subcutaneous injection of vehicle (oliver oil and DMSO) until sacrifice; 4) intravitreous injection (IVT) of anti-rat VEGF (1.5 μg/μl, 5 μl, RnD system, Lille, France) only at day 0 (Couturier A et al. Anti-vascular endothelial growth factor acts on retinal microglia/macrophage activation in a rat model of ocular inflammation. […]
Three days after laser induction (peak of macrophage infiltration), rat RPE-choroidal flatmounts were also prepared for immunofluorescence. […] IBAI positive macrophage/microglial cells were counted on stained laser lesions. The average cell number/per impact/rat eye was calculated.

[2] = system: choroidal neovascularisation (CNV) induced by laser in rat eyes; assay: Fluorescein angiography grading of vascular leakage in rat model of laser-induced CNV; settings: 14 days after laser, versus laser control, spironolactone subcutaneous 25 mg/kg/day, anti-VEGF intravitreous at day 0
Method: (§2) All experiments were performed in accordance with the European Communities Council Directive 86/609/EEC and approved by local ethical committees (Ce5/2012/113). Six to eight-week old male Brown Norway rats from Janvier breeding Center (Le Genest-Saint-Isle, France) were used to create rat model of CNV. Vascular endothelial cell-specific MR knock-out mice (EC-MR-KO) and monocyte/macrophage-specific MR knock-out mice (MC-MR-KO) were generated in C57BL/6 genetic background mice and were obtained from team of Dr F. Jaisser (UMRS 1138, team 1). EC-MR-KO mice were created by mating transgenic mice expressing Cre recombinase in endothelial cells with mice harbouring MR-floxed alleles (Berger S et al. Loss of limbic mineralocorticoid receptor impairs behavioural plasticity. PNAS USA 2006). MC-MR-KO mice were obtained by mating mice expressing Cre recombinase in monocytes/macrophages (Clausen BE et al. Conditional gene targeting in macrophages and granulocytes using LysMcre mice. Trangenic Research 1999) with mice harbouring MR-floxed alleles. Animals were kept in pathogen-free conditions with food, water and litter and housed in a 12-hour light/12-hour dark cycle. […]
FA was performed 14 days (in rats) or 10 days (in mice) after laser induction. […] Early and late phase angiograms were recorded 1-3 and 5-7 min respectively after fluorescein injection. […]

[3] = system: choroidal neovascularisation (CNV) induced by laser in rat eyes; assay: CNV volume quantification on RPE-choroid flatmounts (FITC-GSL I-Isolectin B4) in rat laser-induced CNV
Method: as §2, with “alleles.” for “alleles. Animals were kept in pathogen-free conditions with food, water and litter and housed in a 12-hour light/12-hour dark cycle.”
The deepest focal plane in which the surrounding choroidal vascular network connecting to the lesion could be identified was judged to be the floor of the CNV lesion. The area of CNV-related fluorescence on each horizontal section was measured using ImageJ software. […]

[4] = system: Transcript levels of MCP1, IL6, IL1β, TNFα, VEGF-A and PIGF; assay: Quantitative PCR of rat neuroretina and RPE-choroid complex 3 days after laser; settings: day 3, subcutaneous spironolactone
Method: as §1
Treatments were introduced only in rat model of CNV. After laser photocoagulation, rats were divided into 6 groups: 1) non-treated; 2) daily subcutaneous injection of spironolactone diluted in oliver oil and DMSO (25 mg/kg/day) until sacrifice; 3) daily subcutaneous injection of vehicle (oliver oil and DMSO) until sacrifice; 4) intravitreous injection (IVT) of anti-rat VEGF (1.5 μg/μl, 5 μl, RnD system, Lille, France) only at day 0 (Couturier A et al. Anti-vascular endothelial growth factor acts on retinal microglia/macrophage activation in a rat model of ocular inflammation. Mol Vis 2014;20:908-20); 5) IVT of spironolactone-loaded PLGA MPs only at day 0 (2.2 μg/μl, 5 μl, obtained from team of Pr R. Herrero-Vanrell, Complutense University of Madrid). Considering the ex vivo release profile of Spi-MPs, the daily dose of spironolactone released in the vitreous is estimated at 18 μM; 6) IVT of blank PLGA MPs (5 μl) only at day 0.
Three days after laser induction, rat neuroretinas and RPE-choroid-sclera complexes were carefully dissected from enulcated eyes and snap-frozen in liquid nitrogen and stored at −80° C. until use. Total RNA was isolated from tissues using RNeasy Plus Mini Kit (Qiagen, Courtaboeuf, France) according to the manufacturer's instructions. First-strand complementary DNA was synthesized from total mRNA using random primers (Life Technologies, Cergy Pontoise, France) and SuperScript II reverse transcriptase (Life Technologies). Transcript levels of MR, MCP1, IL6, IL1β, TNFα, VEGF-A and PIGF were analyzed by quantitative real-time PCR performed in 7500 Real-Time PCR System (Applied Biosystems, Foster City, CA, USA) with either SYBR Green or TaqMan detection.

[5] = RPE-choroid complex and neuroretina

## CC(=O)S[C@@H]1CC2=CC(=O)CC[C@]2(C)[C@H]2CC[C@@]3(C)[C@@H](CC[C@@]34CCC(=O)O4)[C@H]12 [spironolactone, 17-hydroxy-7α-mercapto-3-oxo-17α-pregn-4-ene-21-carboxylic acid γ-lactone acetate]
[1]
  activated IBA1 positive macrophage/microglia in laser burns versus laser control: significant fewer
[2]
  decrease in angiographic score (grading of vascular leakage on FA): −45%
[3]; RPE/choroid flatmounts 16 days after laser, spironolactone subcutaneous, anti-VEGF intravitreous, P<0.01
  CNV volume compared to laser control: significant decrease
[3]; systemic administration of spironolactone
  CNV development: limits the CNV development
[4]; [5]
  expression of PIGF at RNA level: not regulated
  expression of VEGF-A at RNA level: not regulated
[4]; RPE-choroid complex
  laser-induced gene expression of IL1β: down-regulates
  laser-induced gene expression of IL6: down-regulates
  laser-induced gene expression of MCP1: down-regulates
  laser-induced gene expression of TNFα: down-regulates
[4]; neuroretina
  laser-induced gene expression of IL1β: down-regulates
  laser-induced gene expression of MCP1: down-regulates
  laser-induced gene expression of TNFα: down-regulates
